Laboratory results taken from publication PMC4448990 (Pharmacology Research & Perspectives, 2015).

Assays:
[1] = plasma and brain concentrations of eslicarbazepine after ESL; format: in vivo; conditions: mouse; for concentration at 60 min: 100 mg/kg; for concentration at 15 min: Amygdala kindling
[2] = molecular target: human α1β2γ2 GABAA receptors (Homo sapiens, UniProt P14867+P18507+P47870); experiment: submaximal GABA currents in Ltk cells; format: cell-based
[3] = molecular target: human α3β2γ2 GABAA receptors (Homo sapiens, UniProt P18507+P34903+P47870); experiment: submaximal GABA currents in Ltk cells; format: cell-based
human α3β2γ2 GABAA receptors, sequence (P34903 29-492): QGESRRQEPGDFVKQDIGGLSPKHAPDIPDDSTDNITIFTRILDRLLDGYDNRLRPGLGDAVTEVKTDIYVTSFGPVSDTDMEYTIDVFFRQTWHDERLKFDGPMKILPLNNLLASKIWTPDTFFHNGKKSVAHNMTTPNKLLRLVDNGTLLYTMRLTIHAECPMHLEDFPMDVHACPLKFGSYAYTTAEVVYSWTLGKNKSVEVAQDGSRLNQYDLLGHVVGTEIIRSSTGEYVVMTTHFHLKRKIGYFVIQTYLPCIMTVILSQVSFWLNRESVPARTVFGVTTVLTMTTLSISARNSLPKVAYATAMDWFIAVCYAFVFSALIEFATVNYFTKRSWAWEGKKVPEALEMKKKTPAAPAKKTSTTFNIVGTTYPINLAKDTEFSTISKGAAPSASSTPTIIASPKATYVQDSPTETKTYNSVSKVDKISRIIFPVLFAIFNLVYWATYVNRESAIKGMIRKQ
human α3β2γ2 GABAA receptors, sequence (P47870 25-512 limits assumed): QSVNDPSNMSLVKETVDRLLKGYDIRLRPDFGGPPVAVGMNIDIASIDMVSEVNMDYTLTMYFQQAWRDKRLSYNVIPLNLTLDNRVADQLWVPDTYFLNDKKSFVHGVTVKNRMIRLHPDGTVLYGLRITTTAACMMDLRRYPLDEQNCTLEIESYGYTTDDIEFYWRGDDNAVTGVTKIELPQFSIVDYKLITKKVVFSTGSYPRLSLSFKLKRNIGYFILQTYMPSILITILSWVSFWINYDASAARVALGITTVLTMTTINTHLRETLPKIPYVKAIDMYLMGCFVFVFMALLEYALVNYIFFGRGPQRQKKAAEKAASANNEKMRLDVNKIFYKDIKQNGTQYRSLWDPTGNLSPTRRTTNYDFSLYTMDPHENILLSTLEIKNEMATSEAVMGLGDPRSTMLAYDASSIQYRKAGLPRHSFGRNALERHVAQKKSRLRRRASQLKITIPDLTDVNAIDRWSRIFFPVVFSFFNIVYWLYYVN
human α3β2γ2 GABAA receptors, sequence (P18507 40-475): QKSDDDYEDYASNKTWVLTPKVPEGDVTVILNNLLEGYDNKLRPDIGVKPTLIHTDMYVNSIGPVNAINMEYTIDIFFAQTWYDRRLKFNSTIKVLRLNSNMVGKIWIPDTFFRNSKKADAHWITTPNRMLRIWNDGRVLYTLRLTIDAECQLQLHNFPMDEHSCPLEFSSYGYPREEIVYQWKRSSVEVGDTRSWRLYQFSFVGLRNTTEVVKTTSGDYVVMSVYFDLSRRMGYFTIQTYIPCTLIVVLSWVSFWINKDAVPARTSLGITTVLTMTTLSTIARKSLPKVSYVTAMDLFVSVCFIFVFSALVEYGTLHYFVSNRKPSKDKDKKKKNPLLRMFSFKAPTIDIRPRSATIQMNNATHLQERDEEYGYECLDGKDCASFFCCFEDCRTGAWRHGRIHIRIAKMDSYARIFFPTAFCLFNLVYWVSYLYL

human GRIA1 receptor = human GRIA1 receptor (Homo sapiens, UniProt P42261); experiment: AMPA-receptor-mediated currents in CHO cells; format: cell-based; conditions: CHO cells, human GRIA1
human GRIA1 receptor, sequence (P42261 19-906): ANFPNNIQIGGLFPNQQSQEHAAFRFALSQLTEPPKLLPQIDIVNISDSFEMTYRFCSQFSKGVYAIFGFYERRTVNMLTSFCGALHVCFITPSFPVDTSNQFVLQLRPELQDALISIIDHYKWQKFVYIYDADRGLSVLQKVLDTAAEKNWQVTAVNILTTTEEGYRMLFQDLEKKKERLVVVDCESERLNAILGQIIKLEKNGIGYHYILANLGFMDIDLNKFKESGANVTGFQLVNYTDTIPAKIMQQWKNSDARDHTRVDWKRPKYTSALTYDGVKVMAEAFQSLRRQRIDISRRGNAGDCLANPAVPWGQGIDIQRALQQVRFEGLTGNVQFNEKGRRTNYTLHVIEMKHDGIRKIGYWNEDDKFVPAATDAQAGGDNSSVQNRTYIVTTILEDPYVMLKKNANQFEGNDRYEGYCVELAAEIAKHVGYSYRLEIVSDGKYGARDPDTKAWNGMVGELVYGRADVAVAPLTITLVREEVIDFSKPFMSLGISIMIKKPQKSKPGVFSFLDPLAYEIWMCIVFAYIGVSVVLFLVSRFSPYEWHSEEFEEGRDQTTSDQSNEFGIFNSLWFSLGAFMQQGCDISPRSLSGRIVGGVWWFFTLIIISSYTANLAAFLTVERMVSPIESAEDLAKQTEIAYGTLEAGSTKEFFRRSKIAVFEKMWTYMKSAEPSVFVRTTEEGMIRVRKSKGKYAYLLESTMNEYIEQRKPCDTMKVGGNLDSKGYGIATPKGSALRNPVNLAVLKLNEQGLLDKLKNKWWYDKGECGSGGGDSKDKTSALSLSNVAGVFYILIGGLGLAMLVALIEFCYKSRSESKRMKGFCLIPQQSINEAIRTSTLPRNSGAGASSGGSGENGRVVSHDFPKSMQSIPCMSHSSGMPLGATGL

[4] = molecular target: T1, human GlyRα3 glycine receptors (Homo sapiens, UniProt O75311); experiment: submaximal glycine currents in CHO cells; format: cell-based
T1 sequence (O75311 34-464): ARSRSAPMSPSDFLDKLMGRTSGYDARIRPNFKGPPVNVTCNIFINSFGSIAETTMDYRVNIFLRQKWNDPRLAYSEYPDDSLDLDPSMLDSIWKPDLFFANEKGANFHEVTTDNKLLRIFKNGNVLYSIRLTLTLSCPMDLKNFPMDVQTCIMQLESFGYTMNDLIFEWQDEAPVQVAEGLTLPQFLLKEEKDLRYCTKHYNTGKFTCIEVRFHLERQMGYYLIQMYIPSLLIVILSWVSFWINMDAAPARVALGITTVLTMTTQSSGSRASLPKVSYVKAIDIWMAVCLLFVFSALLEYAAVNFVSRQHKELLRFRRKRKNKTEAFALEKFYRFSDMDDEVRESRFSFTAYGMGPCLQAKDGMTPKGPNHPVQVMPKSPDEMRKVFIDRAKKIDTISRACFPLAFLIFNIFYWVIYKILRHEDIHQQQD

[5] = human plasma and CSF pharmacokinetics; format: in vivo; conditions: ESL 1200 mg once daily, protein binding 30%
[6] = molecular target: Adenosine transporter (h) (Homo sapiens, UniProt Q99808); experiment: in vitro selectivity profile; format: binding
Adenosine transporter (h), sequence (Q99808 whole entry): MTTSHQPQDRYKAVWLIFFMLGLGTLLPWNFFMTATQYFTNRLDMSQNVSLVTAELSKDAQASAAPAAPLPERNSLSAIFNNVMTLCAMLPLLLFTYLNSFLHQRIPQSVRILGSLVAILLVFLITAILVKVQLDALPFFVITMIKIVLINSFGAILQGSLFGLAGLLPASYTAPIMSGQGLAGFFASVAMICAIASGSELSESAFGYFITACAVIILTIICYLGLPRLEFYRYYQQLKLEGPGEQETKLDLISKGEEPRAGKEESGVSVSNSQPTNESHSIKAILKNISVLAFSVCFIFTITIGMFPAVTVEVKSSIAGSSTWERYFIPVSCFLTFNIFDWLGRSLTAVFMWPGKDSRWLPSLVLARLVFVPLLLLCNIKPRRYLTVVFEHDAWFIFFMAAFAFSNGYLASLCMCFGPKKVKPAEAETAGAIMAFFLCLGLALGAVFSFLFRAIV

Adenosine, A2 = experiment: in vitro selectivity profile; format: binding; conditions: eslicarbazepine 400 μmol/L
Dopamine transporter (h) = Dopamine transporter (h) (Homo sapiens, UniProt Q01959); experiment: in vitro selectivity profile; format: binding
Dopamine, D1 (h) = Dopamine, D1 (h) (Homo sapiens, UniProt P21728); experiment: in vitro selectivity profile; format: binding
Dopamine, D1 (h), sequence (P21728 whole entry): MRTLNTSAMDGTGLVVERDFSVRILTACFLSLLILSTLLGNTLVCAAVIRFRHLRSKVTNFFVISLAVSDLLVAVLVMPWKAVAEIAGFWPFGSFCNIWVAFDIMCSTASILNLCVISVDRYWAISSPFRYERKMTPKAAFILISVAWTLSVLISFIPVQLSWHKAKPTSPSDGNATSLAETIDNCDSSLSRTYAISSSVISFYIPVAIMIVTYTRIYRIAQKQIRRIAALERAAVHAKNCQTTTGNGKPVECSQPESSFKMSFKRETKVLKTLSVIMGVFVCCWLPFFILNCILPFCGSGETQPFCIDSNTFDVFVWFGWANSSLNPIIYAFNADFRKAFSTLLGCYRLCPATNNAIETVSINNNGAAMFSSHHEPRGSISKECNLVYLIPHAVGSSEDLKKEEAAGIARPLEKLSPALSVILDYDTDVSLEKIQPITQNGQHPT

Dopamine, D2s (h) = Dopamine, D2s (h) (Homo sapiens, UniProt P14416); experiment: in vitro selectivity profile; format: binding
Dopamine, D2s (h), sequence (P14416 1-414 isoform P14416-2): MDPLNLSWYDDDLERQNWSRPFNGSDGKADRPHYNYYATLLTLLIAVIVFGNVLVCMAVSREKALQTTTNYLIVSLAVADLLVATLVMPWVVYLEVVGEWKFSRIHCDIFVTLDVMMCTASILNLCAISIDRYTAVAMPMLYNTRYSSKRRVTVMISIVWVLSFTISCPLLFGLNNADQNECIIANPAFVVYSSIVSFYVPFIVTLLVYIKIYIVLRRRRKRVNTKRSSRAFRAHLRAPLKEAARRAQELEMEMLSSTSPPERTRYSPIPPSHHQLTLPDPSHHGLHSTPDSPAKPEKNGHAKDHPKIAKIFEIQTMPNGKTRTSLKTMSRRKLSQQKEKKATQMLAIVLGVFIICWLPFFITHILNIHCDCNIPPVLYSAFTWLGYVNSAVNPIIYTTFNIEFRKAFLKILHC

[7] = tested on: GABA A, BDZ, alpha 1 site; experiment: in vitro selectivity profile; format: binding; conditions: eslicarbazepine 400 μmol/L
[8] = tested on: GABA A, BDZ, alpha 6 site; experiment: in vitro selectivity profile; format: binding; conditions: eslicarbazepine 400 μmol/L
Glutamate, AMPA site = experiment: in vitro selectivity profile; format: binding; conditions: eslicarbazepine 400 μmol/L
Glutamate, MK-801 site = experiment: in vitro selectivity profile; format: binding; conditions: eslicarbazepine 400 μmol/L
[9] = tested on: Glutamate, NMDA, phencyclidine site; experiment: in vitro selectivity profile; format: binding; conditions: eslicarbazepine 400 μmol/L
[10] = tested on: Glutamate, NMDA, glycine (strychnine-insensitive); experiment: in vitro selectivity profile; format: binding; conditions: eslicarbazepine 400 μmol/L
[11] = tested on: Glycine, strychnine-sensitive; experiment: in vitro selectivity profile; format: binding; conditions: eslicarbazepine 400 μmol/L
Histamine, H1 = experiment: in vitro selectivity profile; format: binding; conditions: eslicarbazepine 400 μmol/L
[12] = tested on: Imidazoline, I2 [central]; experiment: in vitro selectivity profile; format: binding; conditions: eslicarbazepine 400 μmol/L
[13] = tested on: Nicotinic, neuronal [a-BnTx insensitive] (h); experiment: in vitro selectivity profile; format: binding, human; conditions: eslicarbazepine 400 μmol/L
[14] = molecular target: Norepinephrine transporter (h) (Homo sapiens, UniProt P23975); experiment: in vitro selectivity profile; format: binding
Serotonin, 5HT4 = experiment: in vitro selectivity profile; format: binding; conditions: eslicarbazepine 400 μmol/L
Sigma 2 = experiment: in vitro selectivity profile; format: binding; conditions: eslicarbazepine 400 μmol/L
[15] = tested on: Nitric oxide, NOS (neuronal-binding); experiment: in vitro selectivity profile; conditions: eslicarbazepine 400 μmol/L
[16] = tested on: Thyrotropin-releasing hormone, TRH; experiment: in vitro selectivity profile; format: binding; conditions: eslicarbazepine 400 μmol/L
Angiotensin II, AT2 = experiment: in vitro selectivity profile; format: binding; conditions: eslicarbazepine 400 μmol/L
Galanin, nonselective = experiment: in vitro selectivity profile; format: binding; conditions: eslicarbazepine 400 μmol/L
Neurokinin, NK1 = experiment: in vitro selectivity profile; format: binding; conditions: eslicarbazepine 400 μmol/L
Neurokinin, NK3 (NKB) = experiment: in vitro selectivity profile; format: binding; conditions: eslicarbazepine 400 μmol/L
[17] = molecular target: Anhydrase, carbonic, isozyme II (h) (Homo sapiens, UniProt P00918); experiment: in vitro selectivity profile; format: biochemical
Oxidase, MAO-B, central = experiment: in vitro selectivity profile; format: biochemical; conditions: eslicarbazepine 400 μmol/L
[18] = molecular target: Protease, caspase, CASP-8 (h) (Homo sapiens, UniProt Q14790); experiment: in vitro selectivity profile; format: biochemical
Protease, caspase, CASP-8 (h), sequence (Q14790 217-374 limits assumed): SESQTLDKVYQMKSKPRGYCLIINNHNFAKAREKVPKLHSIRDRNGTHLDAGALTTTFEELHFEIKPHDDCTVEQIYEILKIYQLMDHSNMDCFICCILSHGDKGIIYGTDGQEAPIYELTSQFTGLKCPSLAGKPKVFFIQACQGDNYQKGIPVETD
Protease, caspase, CASP-8 (h), sequence (Q14790 385-479 limits assumed): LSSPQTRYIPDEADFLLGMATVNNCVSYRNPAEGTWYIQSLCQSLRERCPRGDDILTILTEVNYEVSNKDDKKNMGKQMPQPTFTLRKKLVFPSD

[19] = molecular target: Kinase, protein, MAPK3 (ERK1, P44MAPK) (h) (Homo sapiens, UniProt P27361); experiment: in vitro selectivity profile; format: biochemical
Kinase, protein, MAPK3 (ERK1, P44MAPK) (h), sequence (P27361 whole entry): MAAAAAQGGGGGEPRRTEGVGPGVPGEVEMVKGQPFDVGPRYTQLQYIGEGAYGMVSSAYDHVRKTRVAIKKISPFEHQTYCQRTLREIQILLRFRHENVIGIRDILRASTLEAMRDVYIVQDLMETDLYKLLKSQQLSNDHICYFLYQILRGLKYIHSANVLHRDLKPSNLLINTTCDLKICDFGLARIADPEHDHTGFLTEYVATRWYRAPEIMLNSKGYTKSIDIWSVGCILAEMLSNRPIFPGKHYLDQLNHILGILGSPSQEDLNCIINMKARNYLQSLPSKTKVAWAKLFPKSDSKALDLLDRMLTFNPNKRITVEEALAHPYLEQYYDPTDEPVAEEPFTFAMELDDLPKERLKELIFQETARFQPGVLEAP

[20] = tested on: sodium channels endogenously expressed in N1E-115 mouse neuroblastoma cells; conditions: 250 μmol/L; ref Hebeisen et al. [2014]; cited from earlier work
[21] = tested on: transient Na+ current (INaT); conditions: ref Döser et al. [2013b], [2015]; cited from earlier work

human α1β2γ2 GABAA receptors, sequence (P14867 28-456): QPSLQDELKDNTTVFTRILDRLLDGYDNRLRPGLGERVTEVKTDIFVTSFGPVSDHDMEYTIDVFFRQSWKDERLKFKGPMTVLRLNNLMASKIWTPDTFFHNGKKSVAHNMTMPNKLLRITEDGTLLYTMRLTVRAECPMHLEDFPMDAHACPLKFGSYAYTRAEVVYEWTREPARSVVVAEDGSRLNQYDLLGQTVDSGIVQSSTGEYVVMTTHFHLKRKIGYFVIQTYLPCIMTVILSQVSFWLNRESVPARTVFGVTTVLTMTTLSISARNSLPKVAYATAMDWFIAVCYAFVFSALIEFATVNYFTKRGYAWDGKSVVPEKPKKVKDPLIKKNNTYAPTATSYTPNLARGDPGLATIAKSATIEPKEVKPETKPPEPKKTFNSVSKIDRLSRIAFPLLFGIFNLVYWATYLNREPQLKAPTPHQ
human α1β2γ2 GABAA receptors, sequence (P47870 25-512 limits assumed): as the sequence (P47870 25-512 limits assumed) above
human α1β2γ2 GABAA receptors, sequence (P18507 40-475): as the sequence (P18507 40-475) above

SMILES: NC(=O)N1c2ccccc2C[C@H](O)c2ccccc21 [eslicarbazepine]
- Kp at 60 min ([1]; NMRI, Swiss, brain and plasma, other: oral or intraperitoneal): 3.4 to 5.8
- concentration at 60 min ([1]; NMRI, brain (lipid fraction), intraperitoneal, Brain (lipid fraction) Eslicarbazepine, Corneal kindling, ESL 100 mg/kg i.p.): 564 µM
- concentration at 15 min ([1]; NMRI, brain (lipid fraction), intraperitoneal, 200 mg/kg, Brain (lipid fraction) Eslicarbazepine, ESL 200 mg/kg i.p.): 313 µM
- concentration at 15 min ([1]; NMRI, brain (lipid fraction), intraperitoneal, 300 mg/kg, Brain (lipid fraction) Eslicarbazepine, ESL 300 mg/kg i.p.): 489 µM
- concentration at 60 min ([1]; NMRI, brain (organic phase), intraperitoneal, Brain (organic phase) Eslicarbazepine, Corneal kindling, ESL 100 mg/kg i.p.): 314 µM
- concentration at 15 min ([1]; NMRI, brain (organic phase), intraperitoneal, 200 mg/kg, Brain (organic phase) Eslicarbazepine, ESL 200 mg/kg i.p.): 174 µM
- concentration at 15 min ([1]; NMRI, brain (organic phase), intraperitoneal, 300 mg/kg, Brain (organic phase) Eslicarbazepine, ESL 300 mg/kg i.p.): 273 µM
- concentration at 60 min ([1]; Swiss, brain (lipid fraction), oral, Brain (lipid fraction) Eslicarbazepine, Latrunculin A-induced seizures, ESL 100 mg/kg p.o.): 303 µM
- concentration at 60 min ([1]; Swiss, brain (organic phase), oral, Brain (organic phase) Eslicarbazepine, Latrunculin A-induced seizures, ESL 100 mg/kg p.o.): 169 µM
- GABA inward current stimulation, α1β2γ2, Mean ± SEM ([2]; 50 μmol/L): 103.3 ± 2.0
- GABA inward current stimulation, α1β2γ2, Mean ± SEM ([2]; 100 μmol/L): 95.9 ± 1.0
- GABA inward current stimulation, α1β2γ2, Mean ± SEM ([2]; 250 μmol/L): 97.8 ± 1.1
- GABA inward current stimulation, α1β2γ2, Mean ± SEM ([2]; 500 μmol/L): 99.4 ± 0.8
- effect on submaximal α1β2γ2 GABA currents ([2]; 50–500 μmol/L): did not significantly change submaximal GABA currents
- GABA inward current stimulation, α3β2γ2, Mean ± SEM ([3]; 50 μmol/L): 95.6 ± 4.8
- GABA inward current stimulation, α3β2γ2, Mean ± SEM ([3]; 100 μmol/L): 97.9 ± 4.2
- GABA inward current stimulation, α3β2γ2, Mean ± SEM ([3]; 250 μmol/L): 96.4 ± 2.2
- GABA inward current stimulation, α3β2γ2, Mean ± SEM ([3]; 500 μmol/L): 91.6 ± 5.6
- effect on submaximal α3β2γ2 GABA currents ([3]; 50–500 μmol/L): did not significantly change submaximal GABA currents
- IC50, AMPA currents (human GRIA1 receptor): neither eslicarbazepine nor CBZ significantly changed AMPA currents
- IC50 [4]: 1190 µM
- eslicarbazepine-free drug, peak plasma [5]: 63 µmol/L
- inhibition at 400 µM [6]: 10.1%
- % inhibition (Adenosine, A2): 0.0%
- inhibition at 400 µM (Dopamine transporter (h)): 2.85%
- inhibition at 400 µM (Dopamine, D1 (h)): 6.85%
- inhibition at 400 µM (Dopamine, D2s (h)): 0%
- % inhibition [7]: 25.92%
- % inhibition [8]: 0.0%
- % inhibition (Glutamate, AMPA site): 0.0%
- % inhibition (Glutamate, MK-801 site): 15.45%
- % inhibition [9]: 0.0%
- % inhibition [10]: 13.21%
- % inhibition [11]: 25.95%
- % inhibition (Histamine, H1): 23.23%
- % inhibition [12]: 17.45%
- % inhibition [13]: 23.46%
- inhibition at 400 µM [14]: 9.33%
- % inhibition (Serotonin, 5HT4): 7.38%
- % inhibition (Sigma 2): 6.11%
- % inhibition [15]: 0.0%
- % inhibition [16]: 16.14%
- % inhibition (Angiotensin II, AT2): 11.32%
- % inhibition (Galanin, nonselective): 6.11%
- % inhibition (Neurokinin, NK1): 12.58%
- % inhibition (Neurokinin, NK3 (NKB)): 0.0%
- inhibition at 400 µM [17]: 5.93%
- % inhibition (Oxidase, MAO-B, central): 0.95%
- inhibition at 400 µM [18]: 0%
- inhibition at 400 µM [19]: 2.05%
- recovery of fast inactivated channels [20]: recovered similar to control conditions
- inhibition of firing of DGCs, control versus pilocarpine-treated rats [21]: equally effective in inhibiting firing of DGCs in control versus pilocarpine-treated rats
